US6030960A, “Method of treating hepatitis virus infections” (priority 1998, dated 2000)
Several values for one entry are separate records, joined by “and”; a condition that tells them apart may be missing. Equal values may be shown once. Read-outs that look alike come from different tables or passages of the source.

Assays:
Format in all cases: cell-based
[1] = system: HEP G2 cells persistently infected with HBV; assay: Cytotoxicity in HBV persistently infected human HEP G2 cells, neutral red dye uptake (Table 5)
From the text: (§1) Initially, evaluations of the alkyl lipids were done to determine whether the compounds were cytotoxic to the cells at concentrations having anti-HBV activity. The assay methodology is szt forth in Korba and Germ, Antiviral Res., 19, 55-70 (1992), incorporated by reference herein. Briefly, these cell cytotoxicity evaluations were done in 96-well plates seeded with HEP-G2 cell monolayers. The hepatoblastoma cell line HEP-G2 transfected with a plasmid carrying the gene that confers resistance to […] and four 5'-3' tandem copies of the Hepatitis B virus genome was obtained from Dr. George Acs. Proc. Natl. Acad. Sci. USA, 84, 1005-1009 (1987). Serial concentrations of compound were added to the RPMI-1640 growth medium and the growth medium was added to the 96-well plates containing the cell monolayers. The cells were incubated for a total of nine days at 37° C. The compound-containing medium was periodically replaced. Each compound was tested at four serial concentrations in triplicate. After nine days of treatment and incubation, 0.01% neutral red dye (Sigma, Inc.) was added to the overlay medium. Cell cytotoxicity was quantitated by measuring the average A510. Values in Table 1 represent the percentage of average A510 values (±standard deviation) relative to nine non-treated control wells.
(§2) An analysis was periormed to determine the cytotoxicity of the following compounds in human HEP-G2 cells persistently infected with HBV: CP-51, CP-49, CP-9, CP-126, lyso PAF and CP-7. 2'-3'-Dideoxycytidine (ddC) was used as a control in this cytotoxicity analysis. The toxicity analyses were performed in 96-well flat bottomed tissue culture plates following the same procedure set forth in Example 6 above. Each compound was tested at four concentrations, each in triplicate cultures. Uptake of neutral red dye was used to determine the relative level of toxicity. The absorbance of internalized dye at […] (A510) was used for the quantitative analysis.
(§3) Values are presented as a percentage of the average A510 values (± standard deviations) in ninz separate cultures of untreated cells maintained on the same 96-well plate as the test compounds. The percentage of dye uptake in the nine control cultures was 100±1.

[2] = as above; conditions: human, hep-g2 cells
From the text: as §1, §2, §3

Hepatitis B virus [3] = assay: Effect of alkyl lipids on HBV replication in HBV persistently infected human HEP G2 cells (Table 6); conditions: for Intracellular HBV DNA, Mono (episomal 3.2-3.8 Kb HBV genomes) / Intracellular HBV DNA, RI (replication intermediates): nine days; for inhibition of HBV replication: in words
Protocol: Cells were treated with a particular compound for nine days at 37° C. Analysis of intracellular HEIV DNA was done 24 hours following the ninth day of treatment. […] The levels of integrated HBV DNA in each cellular DNA preparation were used to calculate the levels of episomal 3.2-3.8 Kb HBV genomes (Mono) and HBV DNA replication intermediates (RI). A zero value indicates an undetectable level of HBV virion DNA. The sensitivity cut-off was 0.1 pg DNA/ml of culture medium.

Hepatitis B virus [4] = assay: Effect on synthesis of antigen markers in persistently infected human HEP G2 cell cultures (Table 7); conditions: for Relative Level of HBeAg / Relative Level of HBsAg / Relative Level of Virion DNA / activity at 10 µM: nine days; for Relative Level of HBeAg / Relative Level of HBsAg / Relative Level of Virion DNA: 12960 min; for activity at 10 µM: Hepatitis B virus, HepG2, 216 h; for effect on HBsAg levels released into the culture medium / reduction in HBeAg and virion DNA levels: in words
Protocol: Cells were treated with compound for nine days at 37° C. The overlay medium was harvested to measure levels of HBsAg, HBeAg and virion DNA. HBsAg and HBeAg were assayed by EIA (Abbott Laboratories). Virion DNA levels were measured as described in section B above.

[5] = 10 μM, Day 9, 0 = undetectable, cut-off 0.1 pg DNA/ml
[6] = % of Control Neutral Red Dye Uptake

Row | Compound | HBV Virion DNA (Hepatitis B virus [3]; 1 μM, Day 0) | HBV Virion DNA (Hepatitis B virus [3]; 1 μM, Day 3) | HBV Virion DNA (Hepatitis B virus [3]; 1 μM, Day 6) | HBV Virion DNA (Hepatitis B virus [3]; 1 μM, Day 9) | Intracellular HBV DNA, Mono (episomal 3.2-3.8 Kb HBV genomes) (Hepatitis B virus [3]; 1 μM) | Intracellular HBV DNA, RI (replication intermediates) (Hepatitis B virus [3]; 1 μM) | HBV Virion DNA (Hepatitis B virus [3]; 10 μM, Day 0) | HBV Virion DNA (Hepatitis B virus [3]; 10 μM, Day 3) | HBV Virion DNA (Hepatitis B virus [3]; 10 μM, Day 6) | HBV Virion DNA (Hepatitis B virus [3]; [5]) | Intracellular HBV DNA, Mono (episomal 3.2-3.8 Kb HBV genomes) (Hepatitis B virus [3]; 10 μM) | Intracellular HBV DNA, RI (replication intermediates) (Hepatitis B virus [3]; 10 μM) | inhibition of HBV replication (Hepatitis B virus [3]) | Relative Level of HBeAg (Hepatitis B virus [4]; 10 μM) | Relative Level of HBsAg (Hepatitis B virus [4]; 10 μM) | Relative Level of Virion DNA (Hepatitis B virus [4]; 10 μM) | effect on HBsAg levels released into the culture medium (Hepatitis B virus [4]) | reduction in HBeAg and virion DNA levels (Hepatitis B virus [4]) | further results
1 | CCCCCCCCCCCCOCC(COP(=O)(O)OC[C@H]1O[C@@H](n2cc(C)c(=O)[nH]c2=O)C[C@@H]1N=[N+]=[N-])OCCCCCCCCCC (mixture of isomers) [CP-126, 3'-Azido-3'-deoxy-5'-(rac-3-dodecyloxy-2-decyloxy-1-propyl) phosphothymidine] | 67 pg/ml Culture Medium and 54 pg/ml Culture Medium and 70 pg/ml Culture Medium and 69 pg/ml Culture Medium | 49 pg/ml Culture Medium and 57 pg/ml Culture Medium and 65 pg/ml Culture Medium and 53 pg/ml Culture Medium | 40 pg/ml Culture Medium and 39 pg/ml Culture Medium and 44 pg/ml Culture Medium and 48 pg/ml Culture Medium | 28 pg/ml Culture Medium and 20 pg/ml Culture Medium and 22 pg/ml Culture Medium and 26 pg/ml Culture Medium | 2.3 pg/μg Cell DNA and 2.7 pg/μg Cell DNA and 2.1 pg/μg Cell DNA and 1.8 pg/μg Cell DNA | 51 pg/μg Cell DNA and 67 pg/μg Cell DNA and 56 pg/μg Cell DNA and 61 pg/μg Cell DNA | 60 pg/ml Culture Medium and 62 pg/ml Culture Medium and 59 pg/ml Culture Medium and 51 pg/ml Culture Medium | 59 pg/ml Culture Medium and 50 pg/ml Culture Medium and 55 pg/ml Culture Medium and 66 pg/ml Culture Medium | 20 pg/ml Culture Medium and 21 pg/ml Culture Medium and 26 pg/ml Culture Medium and 29 pg/ml Culture Medium | 13 pg/ml Culture Medium and 8 pg/ml Culture Medium and 9 pg/ml Culture Medium and 12 pg/ml Culture Medium | 1.9 pg/μg Cell DNA and 2.5 pg/μg Cell DNA and 2.0 pg/μg Cell DNA and 2.3 pg/μg Cell DNA | 14 pg/μg Cell DNA and 9 pg/μg Cell DNA and 12 pg/μg Cell DNA and 16 pg/μg Cell DNA | moderately inhibitory of HBV replication | 42 % of Untreated Control | 69 % of Untreated Control | 14 % of Untreated Control | None of the compounds tested | caused a reduction | Cell toxicity (greater than 50% depression of dye uptake) ([1]; at concentrations with strong or moderate antiviral activity): did not occur; viability at 216 h, 3 µM ([2]; Trial 2, 3 μM, read-out: % of Control Neutral Red Dye Uptake): 100 ± 1%; viability at 216 h, 10 µM ([2]; Trial 2, 10 μM, read-out: % of Control Neutral Red Dye Uptake): 97 ± 3%; viability at 216 h, 30 µM ([2]; Trial 2, 30 μM, read-out: % of Control Neutral Red Dye Uptake): 68 ± 1%; viability at 216 h, 100 µM ([2]; Trial 2, 100 μM, read-out: % of Control Neutral Red Dye Uptake): 20 ± 2%; HBV Virion DNA (Hepatitis B virus [3]; 0.1 μM, Day 0): 50 pg/ml Culture Medium and 52 pg/ml Culture Medium and 54 pg/ml Culture Medium and 60 pg/ml Culture Medium; HBV Virion DNA (Hepatitis B virus [3]; 0.1 μM, Day 3): 77 pg/ml Culture Medium and 79 pg/ml Culture Medium and 67 pg/ml Culture Medium and 65 pg/ml Culture Medium; HBV Virion DNA (Hepatitis B virus [3]; 0.1 μM, Day 6): 61 pg/ml Culture Medium and 72 pg/ml Culture Medium and 83 pg/ml Culture Medium and 66 pg/ml Culture Medium; HBV Virion DNA (Hepatitis B virus [3]; 0.1 μM, Day 9): 78 pg/ml Culture Medium and 64 pg/ml Culture Medium and 82 pg/ml Culture Medium and 77 pg/ml Culture Medium; Intracellular HBV DNA, Mono (episomal 3.2-3.8 Kb HBV genomes) (Hepatitis B virus [3]; 0.1 μM): 2.2 pg/μg Cell DNA and 2.6 pg/μg Cell DNA and 2.4 pg/μg Cell DNA; Intracellular HBV DNA, RI (replication intermediates) (Hepatitis B virus [3]; 0.1 μM): 64 pg/μg Cell DNA and 54 pg/μg Cell DNA and 70 pg/μg Cell DNA and 89 pg/μg Cell DNA; activity at 10 µM (Hepatitis B virus [4]; read-out: Relative Level of HBeAg, 10 μM): 35%; activity at 10 µM (Hepatitis B virus [4]; read-out: Relative Level of HBsAg, 10 μM): 65%; activity at 10 µM (Hepatitis B virus [4]; read-out: Relative Level of Virion DNA, 10 μM): 10%
2 | CCCCCCCCCCCCCCCCSCCOP(=O)([O-])OCC[N+](C)(C)C [CP-9, 2-hexadecylthio-1-ethylphosphocholine] | 59 pg/ml Culture Medium and 53 pg/ml Culture Medium and 60 pg/ml Culture Medium and 58 pg/ml Culture Medium and 50 pg/ml Culture Medium and 55 pg/ml Culture Medium and 65 pg/ml Culture Medium | 66 pg/ml Culture Medium and 60 pg/ml Culture Medium and 82 pg/ml Culture Medium and 55 pg/ml Culture Medium and 52 pg/ml Culture Medium and 64 pg/ml Culture Medium and 90 pg/ml Culture Medium and 63 pg/ml Culture Medium | 57 pg/ml Culture Medium and 52 pg/ml Culture Medium and 88 pg/ml Culture Medium and 78 pg/ml Culture Medium and 83 pg/ml Culture Medium and 91 pg/ml Culture Medium and 64 pg/ml Culture Medium | 69 pg/ml Culture Medium and 71 pg/ml Culture Medium and 94 pg/ml Culture Medium and 76 pg/ml Culture Medium and 80 pg/ml Culture Medium and 92 pg/ml Culture Medium | 2.1 pg/μg Cell DNA and 2.6 pg/μg Cell DNA and 2.3 pg/μg Cell DNA and 2.0 pg/μg Cell DNA and 2.2 pg/μg Cell DNA and 2.4 pg/μg Cell DNA | 53 pg/μg Cell DNA and 82 pg/μg Cell DNA and 67 pg/μg Cell DNA and 60 pg/μg Cell DNA and 54 pg/μg Cell DNA and 64 pg/μg Cell DNA and 66 pg/μg Cell DNA | 60 pg/ml Culture Medium and 66 pg/ml Culture Medium and 61 pg/ml Culture Medium and 52 pg/ml Culture Medium | 52 pg/ml Culture Medium and 68 pg/ml Culture Medium and 57 pg/ml Culture Medium and 60 pg/ml Culture Medium | 33 pg/ml Culture Medium and 40 pg/ml Culture Medium and 39 pg/ml Culture Medium and 41 pg/ml Culture Medium | 10 pg/ml Culture Medium and 14 pg/ml Culture Medium and 11 pg/ml Culture Medium | 2.3 pg/μg Cell DNA and 2.2 pg/μg Cell DNA | 13 pg/μg Cell DNA and 14 pg/μg Cell DNA and 17 pg/μg Cell DNA and 12 pg/μg Cell DNA | moderately inhibitory of HBV replication | 57 % of Untreated Control | 64 % of Untreated Control | 16 % of Untreated Control | None of the compounds tested | caused a reduction | Cell toxicity (greater than 50% depression of dye uptake) [1]: did not occur; viability at 216 h, 3 µM [2, 6]: 100 ± 1%; viability at 216 h, 10 µM [2, 6]: 99 ± 2%; viability at 216 h, 30 µM [2, 6]: 86 ± 2%; viability at 216 h, 100 µM [2, 6]: 45 ± 2%; activity at 10 µM (Hepatitis B virus [4]; 10 μM, read-out: Relative Level of HBeAg): 53%; activity at 10 µM (Hepatitis B virus [4]; 10 μM, read-out: Relative Level of HBsAg): 68%; activity at 10 µM (Hepatitis B virus [4]; 10 μM, read-out: Relative Level of Virion DNA): 13%
